A word on the IC50: it is the midpoint of a concentration-inhibition curve. A low value points to inhibition by little substance.

SMILES strings stand for the structures. Some results are limits rather than exact numbers.

We go through 9 compounds from US20260015350A1, “AZAQUINAZOLINE PAN-KRAS INHIBITORS” (Mirati Therapeutics, Inc., priority 2022, published 2026).

Assay [1] has as its target T1, KRas^G12D (Homo sapiens, UniProt P01116, G12D).
T1 construct: Biotinylated KRas (corresponding to amino acids 1-169, produced at Accelegan Inc.); biotin (biotinylated); purchased Accelegan Inc
Briefly: KRas binding assay (TR-FRET tracer displacement), KRas G12D. In general terms: In TR-FRET formats the signal depends on donor and acceptor labels being close together.

Assay [2] addresses T2, KRas^G12R (Homo sapiens, UniProt P01116, G12R).
T2 construct: Biotinylated KRas (corresponding to amino acids 1-169, produced at Accelegan Inc.); biotin (biotinylated); purchased Accelegan Inc
Briefly: KRas binding assay (TR-FRET tracer displacement), KRas G12R.

Assay [3] has as its target T3, KRas^G12V (Homo sapiens, UniProt P01116, G12V).
T3 construct: Biotinylated KRas (corresponding to amino acids 1-169, produced at Accelegan Inc.); biotin (biotinylated); purchased Accelegan Inc
Briefly: KRas binding assay (TR-FRET tracer displacement), KRas G12V.

The test system of assay [4] is KRas-mediated phosphorylation of ERK in MKN1 cells. The assay is described as follows: Inhibition of KRas-mediated phosphorylation of ERK (Cisbio HTRF pERK), MKN1 cells. The class given is cell-based. The following applies: Homo sapiens, MKN-1. In short, it runs like this:
(§1)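 Overnight culture at 37° C./5% CO2 in RPMI containing 10% FBS, seeded 6,000 cells per well, preceded the assay. A covered 4-hour incubation at room temperature followed, then HTRF signal for phosphorylated ERK was measured.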

Assay [5] has as its system KRas-mediated phosphorylation of ERK in PSN1 cells. The assay is described as follows: Inhibition of KRas-mediated phosphorylation of ERK (Cisbio HTRF pERK), PSN1 cells. The assay is classed as cell-based. Particulars: Homo sapiens. In short, it runs like this: as §1
Assay [6] deals with KRas-mediated phosphorylation of ERK in AsPC-1 cells. Briefly: Inhibition of KRas-mediated phosphorylation of ERK (Cisbio HTRF pERK), AsPC-1 cells. The class given is cell-based. Particulars: Homo sapiens, ASPC1, AsPC-1 cells; HTRF pERK. Summed up: (§2)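 Using 6,000 cells per well, compounds are applied for 3 hrs and cells then lysed at 4° C with shaking for 40 mins. Phospho-ERK is measured by HTRF after 2 hrs of lysate incubation with the d2/Cryptate antibody mixture.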

In assay [7] the test system is KRas-mediated phosphorylation of ERK in H727 cells. The assay is described as follows: Inhibition of KRas-mediated phosphorylation of ERK (Cisbio HTRF pERK), H727 cells. The assay is classed as cell-based. The following applies: Homo sapiens, NCI-H727, H727 cells; HTRF pERK. Summed up:
as §2

For assay [8], the system named is KRas-mediated phosphorylation of ERK in A549 cells. The assay is described as follows: Inhibition of KRas-mediated phosphorylation of ERK (Cisbio HTRF pERK), A549 cells. The assay is classed as cell-based. The following applies: Homo sapiens, HTRF pERK. In short, it runs like this:
(§3)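 A cell-based HTRF pERK assay: ten-point, threefold titrations beginning at 10 uM were applied for 3 hrs, with 0.2 uM Trametinib wells as the minimum control. Cells were lysed cold, and lysate was incubated with the antibody pair for 2 hrs before reading.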

Assay [9] has as its system KRas-mediated phosphorylation of ERK in H460 cells. Briefly: Inhibition of KRas-mediated phosphorylation of ERK (Cisbio HTRF pERK), H460 cells. Particulars: Homo sapiens, NCI-H460, HTRF pERK. The assay is classed as cell-based. Summed up: as §2
In assay [10] the test system is KRas-mediated phosphorylation of ERK in HCT116 cells. Briefly: Inhibition of KRas-mediated phosphorylation of ERK (Cisbio HTRF pERK), HCT116 cells. The assay is classed as cell-based. Particulars: Homo sapiens, HCT-116, HTRF pERK. In short, it runs like this: as §3
The subject of assay [11] is KRas-mediated phosphorylation of ERK in H358 cells. Briefly: Inhibition of KRas-mediated phosphorylation of ERK (Cisbio HTRF pERK), H358 cells. The assay is classed as cell-based. The following applies: Homo sapiens, NCI-H358, HTRF pERK. In short, it runs like this: as §2

T1 sequence (P01116 1-169 isoform P01116-2 G12D): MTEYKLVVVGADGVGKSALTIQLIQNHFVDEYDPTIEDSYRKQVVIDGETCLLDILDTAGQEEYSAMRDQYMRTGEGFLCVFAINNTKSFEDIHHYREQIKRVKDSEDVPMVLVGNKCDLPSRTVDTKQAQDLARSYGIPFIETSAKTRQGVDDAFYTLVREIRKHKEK
T3 sequence (P01116 1-169 isoform P01116-2 G12V): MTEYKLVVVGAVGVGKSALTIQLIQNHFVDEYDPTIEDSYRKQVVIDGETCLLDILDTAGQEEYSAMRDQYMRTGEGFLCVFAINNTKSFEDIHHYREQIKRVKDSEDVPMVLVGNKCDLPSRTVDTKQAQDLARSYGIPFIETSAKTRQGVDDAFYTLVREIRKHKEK
T2 sequence (P01116 1-169 isoform P01116-2 G12R): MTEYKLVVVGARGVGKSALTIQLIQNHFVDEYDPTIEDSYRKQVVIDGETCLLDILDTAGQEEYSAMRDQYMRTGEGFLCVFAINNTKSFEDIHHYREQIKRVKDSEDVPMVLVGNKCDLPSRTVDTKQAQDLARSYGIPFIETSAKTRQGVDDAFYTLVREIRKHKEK

`CCc1c(F)ccc2cc(O)cc(-c3ncc4c(N5CCC[C@@](C)(O)C5)nc(OCC56CCCN5CC(=C(F)F)C6)nc4c3F)c12` (stereo partly drawn) [Example 792, (3R)-1-(2-((2-(difluoromethylene)tetrahydro-1H-pyrrolizin-7a(5H)-yl)methoxy)-7-(8-ethyl-7-fluoro-3-hydroxynaphthalen-1-yl)-8-fluoropyrido[4,3-d]pyrimidin-4-yl)-3-methylpiperidin-3-ol]: the IC50 in assay [1] was 2 nM; in assay [2], 2 nM; in assay [3] it was less than 2 nM; in assay [4] it was 2 nM; in assay [5] it was 744 nM; in assay [6], 4 nM. For the same compound, the half-maximal inhibitory concentration (IC50) in [7] was 32 nM; in [8], 9 nM; in assay [9] it was 4 nM; in [10], 13 nM; in assay [11] it was 8 nM.

Take `C[C@@H]1C[C@@H]1c1c(Cl)cc(O)cc1-c1ncc2c(N3CCC[C@@](C)(O)C3)nc(OC[C@@]34CCCN3C[C@H](F)C4)nc2c1F` [Example 805, (R)-1-(7-(3-chloro-5-hydroxy-2-((1S,2R)-2-methylcyclopropyl)phenyl)-8-fluoro-2-(((2R,7aS)-2-fluorotetrahydro-1H-pyrrolizin-7a(5H)-yl)methoxy)pyrido[4,3-d]pyrimidin-4-yl)-3-methylpiperidin-3-ol]: the IC50 in assay [1] was less than 2 nM; in [2], 3 nM; in assay [3], less than 2 nM; in [4] it was 1 nM; in assay [5], 812 nM; in assay [6], 13 nM. For the same compound, the IC50 is 29 nM in [7]; 23 nM in [8]; 10 nM in assay [9]; 24 nM in [10]; 8 nM in assay [11].

`CCc1c(F)ccc2cc(O)cc(-c3ncc4c(N5CC6CCC(CO)(C6)C5)nc(OC[C@@]56CCCN5C[C@H](F)C6)nc4c3F)c12` (stereo partly drawn) [Example 812, 5-ethyl-6-fluoro-4-(8-fluoro-2-(((2R,7aS)-2-fluorotetrahydro-1H-pyrrolizin-7a(5H)-yl)methoxy)-4-(1-(hydroxymethyl)-3-azabicyclo[3.2.1]octan-3-yl)pyrido[4,3-d]pyrimidin-7-yl)naphthalen-2-ol]: the half-maximal inhibitory concentration (IC50) is 12 nM in [1]; 6 nM in [2]; 4 nM in assay [3]; 68 nM in [4]; greater than 10000 nM in assay [5]; 743 nM in assay [6]. For the same compound, the IC50 is 363 nM in assay [7]; 922 nM in [8]; 166 nM in assay [9]; 324 nM in [10]; 177 nM in assay [11].

Turning to `CCc1c(F)ccc2cc(O)cc(-c3ncc4c(N5CCC[C@@](C)(O)C5)nc(OCC5(CN(C)C)C(C)C5C)nc4c3F)c12` (stereo partly drawn) [Example 818, (3R)-1-(2-((1-((dimethylamino)methyl)-2,3-dimethylcyclopropyl)methoxy)-7-(8-ethyl-7-fluoro-3-hydroxynaphthalen-1-yl)-8-fluoropyrido[4,3-d]pyrimidin-4-yl)-3-methylpiperidin-3-ol], the IC50 in [1] was 3 nM; in [2], 8 nM; in assay [3] it was 3 nM; in assay [4], 61 nM; in [5], greater than 10000 nM; in assay [6], 135 nM. For the same compound, the IC50 in [7] came to 347 nM; in [8] it was 212 nM; in [9] it was 167 nM; in assay [10] it was 345 nM; in [11], 121 nM.

Consider `CCc1c(F)ccc2cc(O)cc(-c3ncc4c(N5CC6CCC(C(=O)N(C)C)(C6)C5)nc(OC[C@@]56CCCN5C[C@H](F)C6)nc4c3F)c12` (stereo partly drawn) [Example 824, 3-(7-(8-ethyl-7-fluoro-3-hydroxynaphthalen-1-yl)-8-fluoro-2-(((2R,7aS)-2-fluorotetrahydro-1H-pyrrolizin-7a(5H)-yl)methoxy)pyrido[4,3-d]pyrimidin-4-yl)-N,N-dimethyl-3-azabicyclo[3.2.1]octane-1-carboxamide], for which the concentration for half-maximal inhibition (IC50) in assay [1] was 11 nM; in assay [2] it was 8 nM; in [3], 4 nM; in assay [4], 167 nM; in assay [5] it was greater than 10000 nM; in assay [6], 165 nM. The IC50 was determined as 174 nM in assay [7]; 143 nM in [8]; 136 nM in assay [9]; 502 nM in assay [10]; 69 nM in assay [11].

Take `CCc1c(F)ccc2cc3[nH]ncc3c(-c3ncc4c(N5C[C@@H]6C[C@H](C5)[C@H](O)C6)nc(OC[C@@]56CCCN5C[C@H](F)C6)nc4c3F)c12` [Example 825, (1R,5R,6R)-3-(7-(5-ethyl-6-fluoro-1H-benzo[f]indazol-4-yl)-8-fluoro-2-(((2R,7aS)-2-fluorotetrahydro-1H-pyrrolizin-7a(5H)-yl)methoxy)pyrido[4,3-d]pyrimidin-4-yl)-3-azabicyclo[3.2.1]octan-6-ol]: the half-maximal inhibitory concentration (IC50) was 6 nM in [1]; 3 nM in [2]; less than 2 nM in assay [3]; 36 nM in [4]; 5920 nM in assay [5]; 180 nM in [6]. Moreover, the IC50 in [7] was 56 nM; in [8], 83 nM; in assay [9], 98 nM; in assay [10] it was 369 nM; in assay [11], 50 nM.

As for `CCc1c(F)ccc2cc(O)cc(-c3ncc4c(N5CCC[C@@](C)(O)C5)nc(OC[C@@]56CCCN5[C@H](COC)CC6)nc4c3F)c12` [Example 826, (R)-1-(7-(8-ethyl-7-fluoro-3-hydroxynaphthalen-1-yl)-8-fluoro-2-(((3S,7aS)-3-(methoxymethyl)tetrahydro-1H-pyrrolizin-7a(5H)-yl)methoxy)pyrido[4,3-d]pyrimidin-4-yl)-3-methylpiperidin-3-ol], the IC50 in assay [1] was less than 2 nM; in assay [2], less than 2 nM; in [3] it was less than 2 nM; in assay [4] it was 7 nM; in [5], 2390 nM; in [6], 12 nM. The IC50 in assay [7] was found to be 51 nM; in assay [8], 44 nM; in assay [9] it was 30 nM; in [10], 74 nM; in [11], 9 nM.

Take `CCc1c(F)ccc2cc(O)cc(-c3ncc4c(N5CCC[C@@](C)(O)C5)nc(OCC56CC5CN(C)C6)nc4c3F)c12` (stereo partly drawn) [Example 827, (3R)-1-(7-(8-ethyl-7-fluoro-3-hydroxynaphthalen-1-yl)-8-fluoro-2-((3-methyl-3-azabicyclo[3.1.0]hexan-1-yl)methoxy)pyrido[4,3-d]pyrimidin-4-yl)-3-methylpiperidin-3-ol]: the half-inhibitory concentration (IC50) in assay [1] was less than 2 nM; in [2], 3 nM; in [3], less than 2 nM; in [4] it was 41 nM; in assay [5], greater than 10000 nM; in assay [6], 67 nM. Also, the IC50 in [7] turned out to be 242 nM; in assay [8], 159 nM; in [9] it was 92 nM; in assay [10] it was 180 nM; in assay [11] it was 68 nM.

Regarding `CCc1c(F)ccc2cc(O)cc(-c3ncc4c(N5CC6CCC(C(N)=O)(C6)C5)nc(OC[C@@]56CCCN5C[C@H](F)C6)nc4c3F)c12` (stereo partly drawn) [Example 834, 3-(7-(8-ethyl-7-fluoro-3-hydroxynaphthalen-1-yl)-8-fluoro-2-(((2R,7aS)-2-fluorotetrahydro-1H-pyrrolizin-7a(5H)-yl)methoxy)pyrido[4,3-d]pyrimidin-4-yl)-3-azabicyclo[3.2.1]octane-1-carboxamide], the IC50 in assay [1] was 8 nM; in assay [2], 5 nM; in [3] it was 3 nM; in assay [4], 87 nM; in assay [5] it was greater than 10000 nM; in assay [6], 3450 nM. The half-inhibitory concentration (IC50) is 1140 nM in [7]; 2750 nM in [8]; 797 nM in assay [9]; 1200 nM in assay [10]; 186 nM in [11].
